Source: patent US20050271723A1, “Dosage forms for treatment of benign prostatic hyperplasia” (Threshold Pharmaceuticals, Inc., priority 2003, published 2005)
Entries after “also recorded” stand apart in the source; their conditions may differ.

Tests used:
[1] = tested on: HIF-1α; test: HIF-1α expression in LNCaP cells (immunoblot of nuclear and whole cell extracts); format: cell-based, human; details: hypoxic conditions (oxygen level <0.1%)
Text: (§1) See Franklin et al; 1995. […] 20108 USA. Methods: […]

[2] = tested on: HIF-1α; test: HIF-1α expression in PC3 cells (immunoblot of nuclear and whole cell extracts); format: cell-based, human; details: normoxic and hypoxic conditions, 4 hours, dose-dependent
Text: as §1

[3] = tested on: actin, caspase 3, NF-κB, IκBα; test: Protein levels of actin, caspase 3, NF-κB, IκBα in prostate cell lines (immunoblot); format: cell-based, human; details: except at 800 μM concentration
Protocol: Methods: Cells were plated at a density of 5×10^5 cells into a dish, and then maintained in 37° C. incubator (5% CO2) for 2 days. Prior to the assay, cells were rinsed twice with pre-warmed (37° C.) RPMI-1640 Medium (ATCC No. 30-2001; 10 mM HEPES; 1 mM sodium pyruvate; 2 mM L-glutamine; 4500 mg glucose/L; 1500 mg sodium bicarbonate/L). Cells were incubated with 2 ml culture medium in the absence or presence of lonidamine at different concentrations for 4 hours at 37° C. either under normoxia or hypoxia (oxygen level<0.1%). At the end of the incubation, the dish was placed on ice, and the cells were washed rapidly twice with cold PBS buffer (4° C.). For nuclear extracts, cells were lysed with buffer A (10 mM Tris, pH7.5; 1.5 mM MgCl2; 10 mM KCl and protease inhibitors and buffer C (0.5 M NaCl; 20 mM Tris pH7.5; 1.5 mM MgCl2; 20% glycerol and protease inhibitors), sequentially. The protease inhibitors used in the experiments were a cocktail of five protease inhibitors (500 mM AEBSF-HCl, 1 mg/ml Aprotinin, 1 mM E-64, 500 mM EDTA and 1 mM Leupeptin; Calbiochem NO 539131). For whole cell lysate, cells were lysed with 150 mM NaCl; 10 mM Tris ph7.5; 10 mM EDTA; 1% Triton X-100; 0.5% Deoxycholate, and protease inhibitors. The protein concentration was measured using a Bio-Rad protein assay. Equal amounts of protein were loaded on a SDS-PAGE gel. […]

[4] = tested on: LNCaP cells; test: Apoptosis assay (caspase 3 activity) in LNCaP cells; format: cell-based, human; details: citrate-producing cells, 6 h
Protocol: (§2) Immunoblotting: Immunoblotting was carried out as described in Example 2. […] Apoptosis Assay: […] Lonidamine was added into each well at different concentrations, and then incubated for 6 h at 37° C. To assess the caspase 3 activity, the homogeneous buffer and caspase 3 substrate (Promega No G7791; Promega Corporation, 2800 Woods Hollow Road, Madison Wis. USA 53711) were added into each well in the presence or absence of caspase 3 inhibitor (Promega No G5961). The fluorescence intensity of cleaved substrate was determined using a fluorescence plate reader at excitation 485 nm and emission 530 nm.

[5] = tested on: PC3 cells; test: Apoptosis assay (caspase 3 activity) in PC3 cells; format: cell-based, human; details: PC3, citrate-oxidizing cells; 6 h
Protocol: as §2

[6] = tested on: human prostate epithelial cells; test: Apoptosis assay in primary cultures of human prostate epithelial cells; format: cell-based
Protocol: (§3) Primary Cell Cultures: Primary cultures of human prostate epithelial cells (Cambrex No. CC-2555) and human prostate stromal cells (Cambrex No. CC-2508) were obtained from Cambrex Bio Science Rockland, Inc. (191 Thomaston Street, Rockland, Me. 04841). Apoptosis Assay: […] Lonidamine was added into each well at different concentrations, and then incubated for 6 h at 37° C. To assess the caspase 3 activity, the homogeneous buffer and caspase 3 substrate (Promega No G7791; Promega Corporation, 2800 Woods Hollow Road, Madison Wis. USA 53711) were added into each well in the presence or absence of caspase 3 inhibitor (Promega No G5961). The fluorescence intensity of cleaved substrate was determined using a fluorescence plate reader at excitation 485 nm and emission 530 nm.

[7] = tested on: human prostate stromal cells; test: Apoptosis assay in primary cultures of human prostate stromal cells; format: cell-based; details: 6 h
Protocol: as §3

[8] = higher doses of lonidamine; usually mild; cited from earlier work

O=C(O)c1nn(Cc2ccc(Cl)cc2Cl)c2ccccc12 [lonidamine, 1-(2,4-dichlorobenzyl)-1H-indazole-3-carboxylic acid]
effect on HIF-1α expression, LNCaP compared with PC3 cells [1]: more pronounced in LNCaP cells than in PC3 cells
level of HIF-1α protein in nuclear and whole-cell extracts [2]: reduced the level of HIF-1α protein
inhibition of protein levels of actin, caspase 3, NF-κB, or IκBα [3]: no detectable inhibition
activation of caspase 3 (apoptosis) [4]: induced activation of caspase 3
activation of caspase 3 (apoptosis), LNCaP compared with PC3 cells [5]: significantly greater in LNCaP cells
induction of apoptosis, epithelial compared with stromal cells ([6]; primary cultures): significantly greater in primary cultures of prostate epithelial cells
induction of apoptosis ([6]; primary prostate epithelial cells, 6 h): induced apoptosis only in prostate epithelial cells in a dose-dependent manner; also recorded: induces apoptosis
induction of apoptosis [7]: induction of apoptosis was not observed
side effects [8]: myalgia and testicular pain
